Laboratory results as given in patent EP0519427A2, “N-substituted-3-iodopropiolamide, production and use thereof” (priority 1991, dated 1992).
Where two headings read alike, the source gives them in different places.

Tests used:
Test in all cases: Antibacterial and antifungal activity, paper disc method
Type in all cases: cell-based
[1] = tested on: Escherichia coli IFO-3301; conditions: for zone of inhibition at 1000 µg/mL: Escherichia coli
Experimental: (§1) Antibacterial and antifungal activity tests for various bacteria and fungi were conducted. The tests were carried out by the conventional paper disc method. That is, a paper disc (d=8 mm) was dipped in aqueous or methanol solution of the compound of the present invention (concentration : 1,000 µg/ml), then dried and used.
(§2) As bacteria to be tested, • ① Staphylococcus aureus IFO-12732 [hereinafter abbreviated to Sta.] • ② Bacillus subtilis IFO-13719 [Bac.] • ③ Escherichia coli IFO-3301 [Esc.] were used. As yeast to be tested, • ④ Saccharomyces cerevisiae IFO-0210 [Sac.] • ⑤ Candida albicans IFO-0583 [Can.] were used. As fungi to be tested, • ⑥ Aspergillus niger IFO-4407 [Asp.] • ⑦ Penicillium citrinum IFO-7784 [Pen.] • ⑧ Tyromyces palustris IFO-30339 [Tyr.] • ⑨ Coriolus versicolor IFO-30340 [Cor.] were used. Among the above fungi, Tyr. and Cor. are wood rot fungi.
(§3) As the test media, agar media shown below were used. That is, TSA (Trypticase Soy Agar) medium was used for Sta., Bac. and Esc.; YNB (Yeast Nitrogen Base) agar medium was used for Sac. and Can.; SDA (Sabouraud Dextrose Agar) medium was used for Asp. and Pen.; and PDA (Potato Dextrose Agar) medium was used for Try. and Cor.
(§4) The determination of antibacterial and antifungal effectiveness was carried out by measuring the diameter of the growth inhibition circle generated on the circumference of the paper disc. The indication of effectiveness is given as follows: -: no growth inhibition circle was observed. +: diameter of the growth inhibition circle was 9 - 20 mm ++: diameter of the growth inhibition circle was 21 - 40 mm +++: diameter of the growth inhibition circle was 41 mm or more

[2] = tested on: Aspergillus niger IFO-4407
Experimental: as §1, §2, §3, §4

[3] = tested on: Staphylococcus aureus IFO-12732
Experimental: as §1, §2, §3, §4

[4] = tested on: Saccharomyces cerevisiae IFO-0210
Experimental: as §1, §2, §3, §4

[5] = tested on: Bacillus subtilis IFO-13719; conditions: Bacillus subtilis
Experimental: as §1, §2, §3, §4

[6] = tested on: Candida albicans IFO-0583
Experimental: as §1, §2, §3, §4

[7] = tested on: Tyromyces palustris IFO-30339; conditions: read-out: diameter of the growth inhibition circle, Tyr.(IFO-30339)
Experimental: as §1, §2, §3, §4

[8] = tested on: Penicillium citrinum IFO-7784
Experimental: as §1, §2, §3, §4

[9] = tested on: Coriolus versicolor IFO-30340; conditions: Trametes versicolor
Experimental: as §1, §2, §3, §4

[10] = IFO3301, paper disc d=8 mm dipped in 1,000 µg/ml solution, TSA medium, read-out: diameter of the growth inhibition circle, Esc.(IFO-3301)
[11] = IFO4407, paper disc d=8 mm dipped in 1,000 µg/ml solution, SDA medium, read-out: diameter of the growth inhibition circle, Asp.(IFO-4407)
[12] = IFO12732, paper disc d=8 mm dipped in 1,000 µg/ml solution, TSA medium, read-out: diameter of the growth inhibition circle, Sta.(IFO-12732)
[13] = IFO0210, paper disc d=8 mm dipped in 1,000 µg/ml solution, YNB agar medium, read-out: diameter of the growth inhibition circle, Sac.(IFO-0210)
[14] = IFO13719, paper disc d=8 mm dipped in 1,000 µg/ml solution, TSA medium, read-out: diameter of the growth inhibition circle, Bac.(IFO-13719)
[15] = IFO0583, paper disc d=8 mm dipped in 1,000 µg/ml solution, YNB agar medium, read-out: diameter of the growth inhibition circle, Can.(IFO-0583)
[16] = paper disc d=8 mm dipped in 1,000 µg/ml solution, PDA medium
[17] = IFO7784, paper disc d=8 mm dipped in 1,000 µg/ml solution, SDA medium, read-out: diameter of the growth inhibition circle, Pen.(IFO-7784)
[18] = IFO30340, paper disc d=8 mm dipped in 1,000 µg/ml solution, PDA medium, read-out: diameter of the growth inhibition circle, Cor.(IFO-30340)
[19] = paper disc d=8 mm dipped in 1,000 µg/ml solution, TSA medium

Structure (SMILES)	zone of inhibition at 1000 µg/mL [1, 10] [mm]	zone of inhibition at 1000 µg/mL [2, 11] [mm]	zone of inhibition at 1000 µg/mL [3, 12] [mm]	zone of inhibition at 1000 µg/mL [4, 13] [mm]	zone of inhibition at 1000 µg/mL [5, 14] [mm]	zone of inhibition at 1000 µg/mL [6, 15] [mm]	zone of inhibition at 1000 µg/mL [7, 16] [mm]	zone of inhibition at 1000 µg/mL [8, 17] [mm]	zone of inhibition at 1000 µg/mL [9, 18] [mm]	diameter of the growth inhibition circle, Esc.(IFO-3301) [1, 19]	zone of inhibition at 1000 µg/mL ([1]; IFO3301, read-out: diameter of the growth inhibition circle, Esc.(IFO-3301)) [mm]	zone of inhibition at 1000 µg/mL ([2]; IFO4407, read-out: diameter of the growth inhibition circle, Asp.(IFO-4407)) [mm]	zone of inhibition at 1000 µg/mL ([3]; IFO12732, read-out: diameter of the growth inhibition circle, Sta.(IFO-12732)) [mm]	zone of inhibition at 1000 µg/mL ([4]; IFO0210, read-out: diameter of the growth inhibition circle, Sac.(IFO-0210)) [mm]	zone of inhibition at 1000 µg/mL ([5]; IFO13719, read-out: diameter of the growth inhibition circle, Bac.(IFO-13719)) [mm]	zone of inhibition at 1000 µg/mL ([6]; IFO0583, read-out: diameter of the growth inhibition circle, Can.(IFO-0583)) [mm]	zone of inhibition at 1000 µg/mL [7] [mm]	zone of inhibition at 1000 µg/mL ([8]; IFO7784, read-out: diameter of the growth inhibition circle, Pen.(IFO-7784)) [mm]	zone of inhibition at 1000 µg/mL ([9]; IFO30340, read-out: diameter of the growth inhibition circle, Cor.(IFO-30340)) [mm]
O=C(C#CI)Nc1cccc(Cl)c1 [Example 3, N-(3-Chlorophenyl)-3-iodopropiolamide]	9 to 20	21 to 40	21 to 40	21 to 40	21 to 40	21 to 40	> 41	> 41	> 41										
O=C(C#CI)NCCc1ccccc1 [Example 16, N-(2-Phenylethyl)-3-iodopropiolamide]	9 to 20	21 to 40	21 to 40	> 41	21 to 40	21 to 40	> 41	> 41	> 41										
O=C(C#CI)Nc1cccc(F)c1 [Example 17, N-(3-Fluorophenyl)-3-iodopropiolamide]	9 to 20	21 to 40	21 to 40	21 to 40	21 to 40	21 to 40	> 41	> 41	> 41										
CCCCN(CCCC)C(=O)C#CI [Example 18, N,N-Di(n-butyl)-3-iodopropiolamide]		21 to 40	21 to 40	21 to 40	9 to 20	21 to 40	> 41	> 41	> 41	-									
O=C(C#CI)N1CCCCC1 [Example 19, 1-(3-Iodopropioloyl)piperidine]	9 to 20	21 to 40	21 to 40	21 to 40	21 to 40	21 to 40	> 41	> 41	> 41										
CC1COCC(C)N1C(=O)C#CI (stereo not drawn) [Example 20, 4-(3-Iodopropioloyl)-3,5-dimethylmorpholine]		21 to 40	21 to 40	21 to 40	9 to 20	9 to 20	> 41	> 41	> 41	-									
O=C(C#CI)N1CCN(c2ccccc2)CC1 [Example 21, 1-(3-Iodopropioloyl)-4-phenylpiperazine]		21 to 40	21 to 40	21 to 40	9 to 20	21 to 40	> 41	> 41	> 41	-									
O=C(C#CI)NC1CCCCC1 [Example 22, N-Cyclohexyl-3-iodopropiolamide]	9 to 20	21 to 40	21 to 40	21 to 40	9 to 20	21 to 40	> 41	> 41	> 41										
C=CCNC(=O)C#CI [Example 23, N-Allyl-3-iodopropiolamide]											9 to 20	21 to 40	21 to 40	21 to 40	9 to 20	21 to 40	> 41	> 41	> 41
O=C(C#CI)Nc1ccc(Cl)cc1 [Example 24, N-(4-Chlorophenyl)-3-iodopropiolamide]	9 to 20	21 to 40	21 to 40	21 to 40	9 to 20	21 to 40	> 41	> 41	> 41										
O=C(C#CI)Nc1ccc(Cl)cc1Cl [Example 25, N-(2,4-Dichlorophenyl)-3-iodopropiolamide]	9 to 20	21 to 40	21 to 40	21 to 40	9 to 20	21 to 40	> 41	> 41	> 41										
O=C(C#CI)Nc1cccc(C(F)(F)F)c1 [Example 26, N-(3-Trifluoromethylphenyl)-3-iodopropiolamide]	9 to 20	21 to 40	21 to 40	21 to 40	9 to 20	21 to 40	21 to 40	> 41	> 41										
